Assay results from the supplement of paper PMC10331698.
± gives the standard deviation of the averaged measurements.

Experiments:
Assay in all cases: level (log10 ratio to DMSO vehicle control); higher = higher biomarker level / cell amount than vehicle control
[1] = compound: O=C(O)C(F)(F)C(F)(F)C(F)F [4H-Perfluorobutanoic acid]; conditions: in DMSO
Protocol: (§1)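 BioMAP Diversity Plus panel of 12 human primary cell co-culture systems (3C, 4H, LPS, SAg, BT, BF4T, BE3C, CASM3C, HDF3CGF, KF3CT, MyoF, Mphg). Compounds were added 1 h before stimulation and left for 24 h (MyoF 48 h; BT 72 h for soluble read-outs or 6 d for IgG). Biomarkers were read by ELISA, cytotoxicity by SRB, PBMC viability and proliferation by Alamar Blue. Each well value was divided by the mean of 8 DMSO control wells on the same plate and log10 transformed; duplicate blinded samples were tested at 4 concentrations.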

[2] = compound: C=CC(F)(F)C(F)(F)C(F)(F)C(F)(F)C(F)(F)C(F)(F)C(F)(F)C(F)(F)C=C [1,8-Divinylperfluorooctane]; conditions: in DMSO
Protocol: as §1

[3] = compound: FC(F)C(F)(F)COCC1CO1 [((2,2,3,3-Tetrafluoropropoxy)methyl)oxirane]; conditions: in DMSO
Protocol: as §1

[4] = compound: OCCC(F)(F)C(F)(F)C(F)(F)C(F)(F)C(F)(F)C(F)(F)F [6:2 Fluorotelomer alcohol]; conditions: in DMSO
Protocol: as §1

[5] = compound: OCCCC(F)(F)C(F)(F)C(F)(F)C(F)(F)C(F)(F)C(F)(F)C(F)(F)F [7:3 Fluorotelomer alcohol]; conditions: 6700 nM; in DMSO
Protocol: as §1

[6] = compound: FC(F)(F)C(F)(C(F)(F)F)C(F)(F)C(F)(F)CC1CO1 [3-(Perfluoro-3-methylbutyl)-1,2-propenoxide]; conditions: in DMSO
Protocol: as §1

[7] = compound: O=C(O)C(F)(F)C(F)(F)OC(F)(F)F [Perfluoro-3-methoxypropanoic acid]; conditions: in DMSO
Protocol: as §1

Test System	level (log10) ([1]; 6700 nM)	level (log10) ([1]; 20000 nM)	level (log10) ([1]; 60000 nM)	level (log10) ([2]; 6700 nM)	level (log10) ([2]; 20000 nM)	level (log10) ([3]; 6700 nM)	level (log10) ([3]; 20000 nM)	level (log10) ([3]; 60000 nM)	level (log10) ([4]; 6700 nM)	level (log10) ([4]; 20000 nM)	level (log10) [5]	level (log10) ([6]; 6700 nM)	level (log10) ([6]; 20000 nM)	level (log10) ([7]; 6700 nM)	level (log10) ([7]; 20000 nM)	level (log10) ([7]; 60000 nM)
CASM3C:CD87/uPAR	-0.016 ± 0.013	0 ± 0.02	0.0055 ± 0.022	-0.002 ± 0.014	0.0175 ± 0.0035	-0.029 ± 0.016	-0.0415 ± 0.005	-0.034 ± 0.014	-0.026 ± 0.013	-0.002 ± 0.0042	-0.036 ± 0.057	-0.013 ± 0.016	0.002 ± 0.017	-0.021 ± 0.048	-0.0235 ± 0.035	-0.031 ± 0.033
BE3C:MMP-9	-0.0105 ± 0.019	0.02 ± 0.023	-0.009 ± 0.02	-0.0165 ± 0.011	-0.0165 ± 0.012	-0.0135 ± 0.015	-0.03 ± 0.028	-0.005 ± 0.0028	0.0055 ± 0.0078	-0.0215 ± 0.022	0.0055 ± 0.026	-0.005 ± 0.0071	-0.018 ± 0.011	0.009 ± 0.021	-0.002 ± 0.028	0.0285 ± 0.0078
MyoF:Collagen IV	0.0025 ± 0.0035	0.0005 ± 0.0035	0.023 ± 0.027	-0.023 ± 0.0085	0.0115 ± 0.044	-0.0035 ± 0.013	-0.0065 ± 0.016	0.0065 ± 0.025	-0.0005 ± 0.013	-0.002 ± 0.013	-0.02 ± 0.0085	0.029 ± 0.024	0.057 ± 0.075	-0.021 ± 0.02	0.002 ± 0.0085	0.009 ± 0.013
MyoF:bFGF	-0.023 ± 0.016	-0.007 ± 0.02	0.0045 ± 0.012	0.001 ± 0.0099	0.012 ± 0.02	0.012 ± 0.0057	0.0095 ± 0.0035	0.012 ± 0.011	0.0015 ± 0.005	-0.0085 ± 0.0035	-0.006 ± 0.0028	0.006 ± 0.0099	-0.001 ± 0.0042	0.002 ± 0.018	-0.004 ± 0.037	0.0045 ± 0.025
lMphg:CD106/VCAM-1	0.003 ± 0.0028	0.0125 ± 0.016	0.003 ± 0.014	-0.014 ± 0.018	-0.016 ± 0.016	-0.016 ± 0.038	-0.0155 ± 0.025	-0.017 ± 0.017	-0.016 ± 0.0028	-0.0155 ± 0.013	-0.009 ± 0.027	0.005	-0.0115 ± 0.022	-0.0005 ± 0.035	-0.0035 ± 0.021	-0.0235 ± 0.0035
MyoF:CXCL8/IL-8	-0.0125 ± 0.059	-0.0145 ± 0.0035	0.0465 ± 0.074	-0.028 ± 0.014	0.0085 ± 0.035	-0.0175 ± 0.005	-0.0145 ± 0.018	0.0095 ± 0.025	0.0185 ± 0.032	-0.0045 ± 0.0021	0.017 ± 0.052	0.0045 ± 0.00071	0.0185 ± 0.0021	0.001 ± 0.033	-0.0165 ± 0.0092	0.0475 ± 0.0078
lMphg:SRB-Mphg	-0.009 ± 0.075	-0.015 ± 0.054	0 ± 0.027	-0.0135 ± 0.016	0.0495 ± 0.0092	0.0075 ± 0.016	0.021 ± 0.025	0.02 ± 0.033	-0.0055 ± 0.0064	-0.0255 ± 0.011	-0.0015 ± 0.0021	0.0005 ± 0.0092	0.0075 ± 0.0021	-0.007 ± 0.02	-0.0165 ± 0.019	-0.022 ± 0.025
BE3C:uPA	-0.016 ± 0.05	-0.009 ± 0.016	0.0055 ± 0.06	-0.0245 ± 0.0064	-0.0315 ± 0.0078	-0.0105 ± 0.025	-0.021 ± 0.035	-0.004 ± 0.025	-0.004	-0.012 ± 0.0028	0.0005 ± 0.016	0.0005 ± 0.018	0.004 ± 0.021	-0.004 ± 0.0014	-0.0025 ± 0.0021	0.0005 ± 0.0092
3C:CD54/ICAM-1	-0.016 ± 0.0014	-0.0105 ± 0.018	0.0025 ± 0.0092	-0.0005 ± 0.0064	0.0095 ± 0.0021	-0.008 ± 0.034	-0.017 ± 0.025	-0.002 ± 0.0099	-0.006 ± 0.013	-0.0185 ± 0.044	0.013	-0.0055 ± 0.00071	-0.0025 ± 0.0064	-0.001 ± 0.021	-0.034 ± 0.0028	-0.0055 ± 0.029
CASM3C:CCL2/MCP-1	0.006	-0.0065 ± 0.012	0.0065 ± 0.016	-0.0225 ± 0.0078	0.002 ± 0.014	-0.001 ± 0.0028	-0.0105 ± 0.012	0.021 ± 0.075	-0.0205 ± 0.00071	-0.019 ± 0.0028	-0.0115 ± 0.012	-0.003 ± 0.0071	0.004 ± 0.031	-0.0175 ± 0.032	-0.0215 ± 0.03	0.017 ± 0.0099
KF3CT:CXCL10/IP-10	-0.007 ± 0.016	-0.0035 ± 0.016	0.01 ± 0.0042	-0.001 ± 0.018	-0.0135 ± 0.005	-0.002 ± 0.0028	-0.0005 ± 0.0035	-0.0015 ± 0.022	0.0105 ± 0.0092	0.006 ± 0.014	0.01 ± 0.0042	-0.009 ± 0.016	-0.026 ± 0.014	0.011 ± 0.023	0.027 ± 0.034	0.03 ± 0.016
HDF3CGF:CXCL11/I-TAC	-0.0155 ± 0.071	0.003 ± 0.0071	0.0125 ± 0.0035	0.0135 ± 0.013	0.016 ± 0.037	0.027 ± 0.013	-0.0005 ± 0.0035	0.003 ± 0.0057	0.002 ± 0.0071	0.0155 ± 0.0035	-0.0445 ± 0.023	-0.0005 ± 0.079	-0.0275 ± 0.087	-0.001 ± 0.023	0.0165 ± 0.012	0.0105 ± 0.00071
MyoF:Collagen III	0.022 ± 0.0099	0.0155 ± 0.0064	0.034 ± 0.014	-0.02 ± 0.0071	-0.0115 ± 0.012	-0.0045 ± 0.0035	-0.0105 ± 0.005	-0.005	0.003 ± 0.016	-0.005 ± 0.0014	-0.0035 ± 0.012	-0.004 ± 0.0099	-0.0275 ± 0.0078	0.004 ± 0.0099	0.0095 ± 0.0078	0.013 ± 0.0014
MyoF:CD106/VCAM-1	-0.0065 ± 0.011	-0.017 ± 0.0071	0.0135 ± 0.015	0.006 ± 0.0042	0.0075 ± 0.018	-0.0075 ± 0.0035	-0.025 ± 0.031	-0.011 ± 0.044	0.016 ± 0.0071	0.0045 ± 0.019	-0.013 ± 0.011	0.008 ± 0.011	-0.0305 ± 0.019	-0.014 ± 0.0042	0.0035 ± 0.013	0.001
3C:CD106/VCAM-1	-0.0075 ± 0.04	-0.0265 ± 0.005	0.006 ± 0.0028	-0.018 ± 0.017	-0.003 ± 0.011	-0.0005 ± 0.0092	-0.0225 ± 0.023	-0.0125 ± 0.011	0.0025 ± 0.0092	-0.0075 ± 0.0021	0.005 ± 0.0057	-0.0275 ± 0.019	-0.0005 ± 0.013	-0.0015 ± 0.0064	-0.009 ± 0.024	0.0015 ± 0.018
BE3C:MMP-1	-0.033 ± 0.059	-0.0175 ± 0.0035	0.008 ± 0.051	0.0095 ± 0.069	0.0345 ± 0.0092	-0.013 ± 0.02	-0.0335 ± 0.019	-0.0185 ± 0.0078	-0.0245 ± 0.036	-0.0195 ± 0.028	0.016 ± 0.033	0.0085 ± 0.076	0.0445 ± 0.1	-0.0025 ± 0.018	0.002 ± 0.013	0.0155 ± 0.00071
HDF3CGF:PAI-I	-0.021 ± 0.12	0.0115 ± 0.1	0.03 ± 0.069	0 ± 0.013	-0.0065 ± 0.012	0.0065 ± 0.016	0.0065 ± 0.0064	0.0035 ± 0.011	-0.013 ± 0.014	-0.004 ± 0.013	0.0175 ± 0.029	-0.003 ± 0.028	0.0125 ± 0.015	0.0025 ± 0.0092	0.0135 ± 0.026	0.0185 ± 0.012
CASM3C:CD142/Tissue Factor	0.0045 ± 0.14	-0.039 ± 0.093	-0.0415 ± 0.037	0.0035 ± 0.028	-0.0085 ± 0.005	0.0075 ± 0.013	-0.0005 ± 0.037	0.0385 ± 0.083	0.004 ± 0.014	0.0075 ± 0.0064	-0.011 ± 0.016	-0.038 ± 0.047	-0.033 ± 0.014	-0.022 ± 0.027	-0.0145 ± 0.04	-0.0025 ± 0.037
